Measurements taken from patent publication US4642341A, “Carbapenem antibiotics” (priority 1985, dated 1987).
Converted amounts (≈) assume the structure as drawn. Like-named read-outs stand apart in the source and are kept apart here.

What was measured:
S. pneumoniae A-9585 = assay: Minimum Inhibitory Concentration, tube dilution; type: cell-based; settings: Streptococcus pneumoniae, A9585, overnight 37° C.; table 6
S. pyogenes A-9604 = assay: Minimum Inhibitory Concentration, tube dilution; type: cell-based; settings: Streptococcus pyogenes, A9604, overnight 37° C.; table 6
S. aureus A-9537 = assay: Minimum Inhibitory Concentration, tube dilution; type: cell-based; settings: Staphylococcus aureus, table 6, read-out: MIC
[1] = test system: S. aureus A-9606 (Pen-res.); assay: Minimum Inhibitory Concentration, tube dilution; type: cell-based; settings: Staphylococcus aureus, Pen-res; table 6
[2] = test system: S. aureus A15097 (Meth-res.); assay: Minimum Inhibitory Concentration, tube dilution; type: cell-based; settings: Staphylococcus aureus, table 6
P. vulgaris A21559 = assay: Minimum Inhibitory Concentration, tube dilution; type: cell-based; settings: Proteus vulgaris, A21559, overnight 37° C.; table 6
P. aeruginosa A-9843A = assay: Minimum Inhibitory Concentration, tube dilution; type: cell-based; settings: Pseudomonas aeruginosa, A9843A, overnight 37° C.; table 6; read-out: MIC
H. influenzae A-9833 = assay: Minimum Inhibitory Concentration, tube dilution; type: cell-based; settings: Haemophilus influenzae, A9833; overnight 37° C.; table 6; read-out: MIC
H. influenzae A21518 = assay: Minimum Inhibitory Concentration, tube dilution; type: cell-based; settings: Haemophilus influenzae, overnight 37° C., table 6
B. fragilis A22862 = assay: Minimum Inhibitory Concentration, tube dilution; type: cell-based; settings: Bacteroides fragilis, overnight 37° C., table 6
M. morganii A15153 = assay: Minimum Inhibitory Concentration, tube dilution; type: cell-based; settings: Morganella morganii, A15153, overnight 37° C.; table 6
P. mirabilis A9900 = assay: Protective effect, intramuscular treatment of infected mice (table 7); type: in vivo; settings: Proteus mirabilis, A9900, im; i.m. 1 and 3.5 hours post-infection; ~1×10^7 organisms i.p.; read-out: PD50 /treatment
Method: (§1) Drugs were administered i.m. 0 to 2 hours post-infection (A9606) or 1 and 3.5 hours post-infection for the others.

S. aureus A9606 = assay: as above; type: in vivo; settings: Staphylococcus aureus, A9606, im; i.m. 0 to 2 hours post-infection; ~1×10^9 organisms i.p.; read-out: PD50 /treatment
Method: as §1

P. aeruginosa A9843A [3] = assay: animal or person; type: in vivo, mice; settings: Pseudomonas aeruginosa, in Mus musculus, im, 3.5 h, read-out: PD50 /treatment
Method: as §1

[4] = Pharmacokinetic parameters in the mouse after intramuscular dose; type: in vivo, mice; settings: im, 20 mg/kg
Text: Also shown is the urinary recovery in the mice.
Compounds were solubilized in 0.1 M phosphate buffer pH 7.

[5] = Half-life in phosphate buffer pH 7.4; type: physicochemical
Method: To a solution of p-nitrobenzyl 3-[2-(1-pyridinium)ethylthio)]-6α[1-(R)-hydroxyethyl]-7-oxo-1-azabicyclo(3.2.0)hept-2-ene-carboxylate diphenylphosphate (0.16 g, 0.22 mmol) in wet tetrahydrofuran (10mL) was added ether (10mL), potassium phosphate monobasic-sodium hydroxide buffer pH 7.4 (16 mL, 0.05 M) and 10% palladium on charcoal (0.16 g). The resulting mixture was hydrogenated under 40 psi for 1 h at 25° C. The two phases were separated and the organic phase was extracted with water (2×3 mL). The aqeuous solutions were combined, washed with ether (2×10 ml) and poured on top of a column (1.5×6.2 cm) pf μ-bondapak C-18 after the traces of organic solvents have been removed under vacuum. Elution of the column with water gave after lyophylization of the appropriate fractions a yellowish powder 0.062 g (84%), ir (KBr) .nu.max : 3700-3000 (OH), 1755 (C--O of β-lactam), 1630 (pyridinium), 1590 cm^-1 (carboxylate), ^1 Hmr (D2 O): 1.22 (3H, d, J=6.4 Hz, CH3 CHOH), 2.92 (d, J=9.1 Hz, H-4), 2.97 (d, J=9.1 Hz, H-4), 3.20 (dd, J=2.5 Hz, J=6.1 Hz, H-6), 3.44 (t, J=6.0 Hz, CH2 S), 3.93 (dd, J=9.1 Hz, J=2.5 Hz, H-5), 4.82 (t, J=6.0 Hz, CH2 N^+), 8.04 (m, Hm of pyridinium), 8.5 (m, Hp of pyridinium), 8.82 (dd, J=3.2. Hz, J=1.1 Hz, Ho of pyridinium), uv (H2 O) λ max : 259 (ε5800), 296 (ε7030) mμ, .tau.1/2 =13.5 h (measured at a concentration of 10^-4 M in phosphate buffer pH 7.4 at 36.8° C.).

S. faecalis A20688 = assay: Minimum Inhibitory Concentration, tube dilution; type: cell-based; settings: Enterococcus faecalis, A20688, overnight 37° C.; table 6; read-out: MIC
E. coli A15119 = assay: Minimum Inhibitory Concentration, tube dilution; type: cell-based; settings: Escherichia coli, A15119, overnight 37° C.; table 6
E. coli A20341-1 = assay: Minimum Inhibitory Concentration, tube dilution; type: cell-based; settings: Escherichia coli, A203411, overnight 37° C.; table 6
K. pneumoniae A-9664 = assay: Minimum Inhibitory Concentration, tube dilution; type: cell-based; settings: Klebsiella pneumoniae, A9664, overnight 37° C.; table 6
P. rettgeri A22424 = assay: Minimum Inhibitory Concentration, tube dilution; type: cell-based; settings: Providencia rettgeri, overnight 37° C., table 6, read-out: MIC
S. marcescens A20019 = assay: Minimum Inhibitory Concentration, tube dilution; type: cell-based; settings: Serratia marcescens, A20019, overnight 37° C.; table 6
P. aeruginosa A21213 = assay: Minimum Inhibitory Concentration, tube dilution; type: cell-based; settings: Pseudomonas aeruginosa, A21213, overnight 37° C.; table 6; read-out: MIC
E. cloacae A9659 = assay: Minimum Inhibitory Concentration, tube dilution; type: cell-based; settings: Enterobacter cloacae, A9659, overnight 37° C.; table 6; read-out: MIC
P. aeruginosa A9843A [6] = assay: animal or person; type: in vivo, mice; settings: Pseudomonas aeruginosa, in Mus musculus, im, read-out: PD50 /treatment
Text: The PD50 (dose in mg/kg required to give protection to 50% of the infected mice) is indicated.

P. mirabilis A-9900 = assay: Minimum Inhibitory Concentration, tube dilution; type: cell-based; settings: Proteus mirabilis, A9900, overnight 37° C.; table 6

Row | Compound | MIC (S. pneumoniae A-9585) | MIC (S. pyogenes A-9604) | MIC (S. aureus A-9537; A9537, 50% serum) | MIC (S. aureus A-9537; A9537, overnight 37° C.) | MIC [1] | MIC (P. vulgaris A21559) | MIC (P. aeruginosa A-9843A) | MIC (B. fragilis A22862) | MIC (S. faecalis A20688) | MIC (E. coli A15119) | MIC (E. coli A20341-1) | MIC (K. pneumoniae A-9664) | MIC (S. marcescens A20019) | MIC (P. aeruginosa A21213) | ED50 (P. aeruginosa A9843A [6]) | also measured
1 | Cc1cc[n+](CCSC2=C(C(=O)[O-])N3C(=O)[C@H]([C@@H](C)O)[C@H]3C2)cc1 [Example 8, 3-[2-(1-(4-methylpyridinium))ethylthio]-6α-[1(R)-hydroxyethyl]-7-oxo-1-azabicyclo(3.2.0)hept-2-ene-2-carboxylate] | 0.03 µg/mL (≈ 0.0861 µM) | 0.03 µg/mL (≈ 0.0861 µM) | 0.06 µg/mL (≈ 0.172 µM) | 0.03 µg/mL (≈ 0.0861 µM) | 0.06 µg/mL (≈ 0.172 µM) | 0.06 µg/mL (≈ 0.172 µM) | 8 µg/mL (≈ 23 µM) | 0.06 µg/mL (≈ 0.172 µM) |  |  |  |  |  |  |  | MIC [2]: > 63 µg/mL; MIC (H. influenzae A-9833): > 32 µg/mL; MIC (H. influenzae A21518): > 32 µg/mL; MIC (M. morganii A15153): 0.03 µg/mL (≈ 0.0861 µM); ED50 (P. mirabilis A9900): ~38 mg/kg; ED50 (S. aureus A9606): 0.8 mg/kg; ED50 (P. aeruginosa A9843A [3]): 0.9 mg/kg; AUC ([4]; blood): 4600 ng·h/mL; Cmax ([4]; blood): 10600 ng/mL; half-life ([4]; blood, read-out: T1/2 (blood)): 8.2 min; dose excreted ([4]; urine, read-out: Urine Recovery): 47 ± 7%; half-life at 100 µM ([5]; phosphate buffer, pH 7.4, τ1/2 (half-life)): 12.8 h
2 | CSc1ccc[n+](CCSC2=C(C(=O)[O-])N3C(=O)[C@H]([C@@H](C)O)[C@H]3C2)c1 [Example 11, (5R,6S)-3-[[2-(3-methylthiopyridinio)ethyl]thio]-6-[1-(R)-hydroxyethyl]-7-oxo-1-azabicyclo[3.2.0]hept-2-ene2-carboxylate] | 0.001 µg/mL (≈ 0.00263 µM) | 0.001 µg/mL (≈ 0.00263 µM) | 0.03 µg/mL (≈ 0.0788 µM) | 0.004 µg/mL (≈ 0.0105 µM) | 0.008 µg/mL (≈ 0.021 µM) | 0.03 µg/mL (≈ 0.0788 µM) | 4 µg/mL (≈ 10.5 µM) | 0.06 µg/mL (≈ 0.158 µM) | 0.25 µg/mL (≈ 0.657 µM) | 0.03 µg/mL (≈ 0.0788 µM) | 0.03 µg/mL (≈ 0.0788 µM) | 0.06 µg/mL (≈ 0.158 µM) | 0.06 µg/mL (≈ 0.158 µM) | 1 µg/mL (≈ 2.63 µM) | 2.4 mg/kg | MIC (P. rettgeri A22424): 0.25 µg/mL (≈ 0.657 µM); MIC (E. cloacae A9659): 0.06 µg/mL (≈ 0.158 µM); half-life ([5]; phosphate buffer, pH 7.4, 36.8° C., read-out: t1/2 (half-life) (converted)): 20 h
3 | COc1ccc[n+](CCSC2=C(C(=O)[O-])N3C(=O)[C@H]([C@@H](C)O)[C@H]3C2)c1 [Example 10, 3-[2-(3-methoxy-1-pyridinium)ethylthio]-6α-[1'-(R)-hydroxyethyl]-7-oxo-1-azabicyclo(3.2.0)-hept-2-ene-2-carboxylate] | 0.002 µg/mL (≈ 0.00549 µM) | 0.002 µg/mL (≈ 0.00549 µM) | 0.06 µg/mL (≈ 0.165 µM) | 0.008 µg/mL (≈ 0.022 µM) | 0.016 µg/mL (≈ 0.0439 µM) | 0.06 µg/mL (≈ 0.165 µM) | 4 µg/mL (≈ 11 µM) |  |  | 0.03 µg/mL (≈ 0.0823 µM) |  | 0.06 µg/mL (≈ 0.165 µM) |  | 1 µg/mL (≈ 2.74 µM) | 1.8 mg/kg | half-life ([5]; 0.1 m phosphate buffer, pH 7.4, T1/2 (half-life)): 20 h
4 | CSc1n(C)cc[n+]1CCSC1=C(C(=O)[O-])N2C(=O)[C@H]([C@@H](C)O)[C@H]2C1 [Example 13, (5R, 6S)-3-[2-(2-methylthio-3-methylimidazolio)ethyl-thio]-6-[1-(R)-hydroxyethyl]-7-oxo-1-azabicyclo[3.2.0]hept-2-ene-2-carboxylate] | 0.001 µg/mL (≈ 0.00261 µM) | 0.002 µg/mL (≈ 0.00522 µM) | 0.03 µg/mL (≈ 0.0782 µM) | 0.008 µg/mL (≈ 0.0209 µM) | 0.03 µg/mL (≈ 0.0782 µM) | 0.03 µg/mL (≈ 0.0782 µM) | 32 µg/mL (≈ 83.4 µM) |  | 0.5 µg/mL (≈ 1.3 µM) | 0.03 µg/mL (≈ 0.0782 µM) | 0.03 µg/mL (≈ 0.0782 µM) |  | 0.06 µg/mL (≈ 0.156 µM) | 2 µg/mL (≈ 5.22 µM) |  | MIC (P. mirabilis A-9900): 0.03 µg/mL (≈ 0.0782 µM)
